Measurements published in article PMC10447463, “Data-mining unveils structure–property–activity correlation of viral infectivity enhancing self-assembling peptides” (Nature Communications, 2023).
Read-outs that look alike come from different tables or passages of the source.

Columns and labels:
[1] = Conversion rate (CR) assay with fluorescamine; format: physicochemical; parameters: key to CR: % = 100−100×filtrate/original fluorescence intensity
Experimental: For ATR FT–IR spectroscopy measurements, 200 µL of the respective 1 mg/mL PNF solution was lyophilized and the resulting powder used for measurement. All spectra were recorded on a Bruker Tensor 27 spectrometer with a diamond crystal as ATR element (PIKE MiracleTM, spectral resolution 2 cm^-1). Every sample was measured with 64 scans. Data were analyzed with OriginLab software and calculation of β–sheet content was conducted according to a previous report. TEM. For TEM measurements 5 µL of PNF fibrils (1 mg/mL) were placed on copper grids coated with carbon and formvar layer (300 mesh, Plano GmbH). After 10 min incubation time, the grids were staining with 4% uranyl acetate solution for 2.5 min and washed with water. Measurements were performed on a Jeol 1400 electron microscope with 120 kV acceleration voltage. CR Assay. For the determination of the amount of peptide monomer converting into nanostructures the amine reactive dye fluorescamine was used analogous to a previous reported protocol. Briefly, 100 µL of the preformed PNF solution was centrifuged in a Vivaspin 500 tube (3 kDa MWCO) to separate fibers from free peptide monomer (16200 x g, 4 °C, 45 min). The filtrate and 100 μL of the non-filtered PNF sample were lyophilized and dissolved in 30 μL DMSO. 10 μL of the filtrate and non-filtered DMSO samples were submitted in a black UV Star® 384 microliter well–plates (Greiner bio–one) and 3 μL of the fluorescamine solution (10 mg/mL, DMSO) was added to measure the fluorescence enhancement. After 20 min of incubation at RT, fluorescence was recorded on an Infinite® M1000 PRO microplate reader (Tecan) at λem = 470 nm upon excitation at λex = 365 nm with 10 nm bandwidths and multiple reads per well (3×3). Measurements were repeated in triplicates and averaged with standard deviation. All values were calculated as n-fold fluorescence enhancement (DMSO only as a reference was set to 1). The conversion rate CR was defined according to the equation Eq. (3).3 CR=100−100×fluorescenceintensityfiltrate/fluorescenceintensityoriginal[%]

[2] = format: physicochemical; settings: for ThT Cat. / ThT-Fluorescence (categorical): ThT-active if fluorescence at least twice the control
How it was run: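 Preformed peptide fibrils (1 mg/mL) mixed with 50 µM ThT in PBS, 15 min at RT, fluorescence ex 440/em 488 nm versus PBS blank, triplicates. Zeta potential: peptides at 1 mg/mL in PBS pH 7.4, aged 1 d at RT, diluted in 1 mM KCl, Smoluchowski from electrophoretic mobility.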

[3] = Fig. S7 panel B, conversion rate, fluorescamine assay
[4] = conversion rate, fluorescamine assay
[5] = ThT fluorescence category, 1 if Rel. ThT >2

Substance | CR / % [1, 3] | CR [1, 4] | Tht category (> 2 to blank = +) ([2]; Fig S10 panel D) | ThT Cat. ([2]; Fig S10 panel E) | ThT Cat, ([2]; ThT category, 1 if Rel. ThT >2) | ThT Cat. [2, 5] | ThT Cat. / ThT-Fluorescence (categorical) [2] | CR / % ([1]; conversion of monomer to nanostructures, 3 kDa MWCO filtration, fluorescamine, ex 365 / em 470 nm, triplicate) | Tht category (> 2 to blank = +) ([2]; FigS12 panel A) | ThT Cat, ([2]; FigS12 panel B) | ThT Cat. ([2]; ThT category, 1 if Rel. ThT >2) | Rel. ThT ([2]; n-fold ThT fluorescence vs control (PBS, 10% DMSO), 4 µL 1 mg/mL fibrils + 20 µL 50 µM ThT, 15 min RT, ex 440 / em 488 nm, triplicate)
CEIEIQINMWQ | 67% | 66.95 | 1 (ThT. Cat is 1, if Rel. ThT >2) | 1 (ThT. Cat is 1, if Rel. ThT >2) | 1 (ThT. Cat is 1, if Rel. ThT >2) | 1 (ThT. Cat is 1, if Rel. ThT >2) | 1 (ThT. Cat is 1, if Rel. ThT >2) |  |  |  |  | 
KIKIQIC | 51.5% | 51.55 | 1 (ThT. Cat is 1, if Rel. ThT >2) | 1 (ThT. Cat is 1, if Rel. ThT >2) | 1 (ThT. Cat is 1, if Rel. ThT >2) | 1 (ThT. Cat is 1, if Rel. ThT >2) | 1 (ThT. Cat is 1, if Rel. ThT >2) |  |  |  |  | 
CKAKAQANMWQ | 92.5% | 92.45 | 0 (ThT-inactive (N-Fold <2)) | 0 (ThT-inactive (N-Fold <2)) | 0 (ThT-inactive (N-Fold <2)) |  | 0 (ThT-inactive (N-Fold <2)) | 92% | 0 (ThT-inactive (N-Fold <2)) | 0 (ThT-inactive (N-Fold <2)) | 0 (ThT-inactive (N-Fold <2)) | 1.9
KIKIKIKIWW | 92% | 92 | 1 (ThT. Cat is 1, if Rel. ThT >2) | 1 (ThT. Cat is 1, if Rel. ThT >2) | 1 (ThT. Cat is 1, if Rel. ThT >2) | 1 (ThT. Cat is 1, if Rel. ThT >2) | 1 (ThT. Cat is 1, if Rel. ThT >2) |  |  |  |  | 
KFKFQFFF | 98.5% | 98.46 | 1 (ThT. Cat is 1, if Rel. ThT >2) | 1 (ThT. Cat is 1, if Rel. ThT >2) | 1 (ThT. Cat is 1, if Rel. ThT >2) | 1 (ThT. Cat is 1, if Rel. ThT >2) | 1 (ThT. Cat is 1, if Rel. ThT >2) |  |  |  |  | 
QCKFKQFFNM | 98.7% | 98.67 | 1 (ThT. Cat is 1, if Rel. ThT >2) | 1 (ThT. Cat is 1, if Rel. ThT >2) | 1 (ThT. Cat is 1, if Rel. ThT >2) |  | 1 (ThT. Cat is 1, if Rel. ThT >2) |  |  |  | 1 (ThT. Cat is 1, if Rel. ThT >2) | 
KFKFEFEF |  |  | 1 (ThT. Cat is 1, if Rel. ThT >2) |  | 1 (ThT. Cat is 1, if Rel. ThT >2) | 1 (ThT. Cat is 1, if Rel. ThT >2) | 1 (ThT. Cat is 1, if Rel. ThT >2) |  | 1 (ThT. Cat is 1, if Rel. ThT >2) | 1 (ThT. Cat is 1, if Rel. ThT >2) |  | 
KIKIQIMQWN |  |  | 0 (ThT-inactive (N-Fold <2)) |  | 0 (ThT-inactive (N-Fold <2)) |  | 0 (ThT-inactive (N-Fold <2)) |  |  |  | 0 (ThT-inactive (N-Fold <2)) | 
CKIKIQINMW |  |  | 0 (ThT-inactive (N-Fold <2)) |  | 0 (ThT-inactive (N-Fold <2)) |  | 0 (ThT-inactive (N-Fold <2)) |  |  |  | 0 (ThT-inactive (N-Fold <2)) | 
ILKNLSRSRKIKIQIC |  |  | 1 (ThT. Cat is 1, if Rel. ThT >2) |  | 1 (ThT. Cat is 1, if Rel. ThT >2) | 1 (ThT. Cat is 1, if Rel. ThT >2) | 1 (ThT. Cat is 1, if Rel. ThT >2) |  |  |  |  | 
ILKNLSRSRKIKIQINMWQ |  |  | 1 (ThT. Cat is 1, if Rel. ThT >2) |  | 1 (ThT. Cat is 1, if Rel. ThT >2) |  | 1 (ThT. Cat is 1, if Rel. ThT >2) |  |  |  | 1 (ThT. Cat is 1, if Rel. ThT >2) | 
